From paper PMC7006908 (PLoS ONE, 2020)
“And” between values parts separate entries of the source, which are not always exact repeats. Identical values can stand only once. Like-named read-outs stand apart in the source and are kept apart here. Values belong to the compound of their own block, whether it stands above or below them.

Columns and labels:
[1] = LC-MS/MS quantification of Cmin in plasma samples from breast cancer patients (clinical study CRO-2018-83); format: in vivo, human; details: for concentration at 25 h / concentration at 1 week / concentration at 15 h / concentration at 30 h: human, plasma, oral; for concentration at 25 h / concentration at 1 week: 125 mg/day; for concentration at 25 h: patient 2, sample 3, PALBO 125 mg/day; for concentration at 1 week: patient 3, sample 4, PALBO 125 mg/day; for concentration at 15 h: patient 7, sample 9, PALBO 125 mg/day; for concentration at 30 h: patient 8, sample 10, RIBO 600 mg/day + LETRO 2.5 mg/day
Protocol: Preparation of calibration curve and QCs samples was conducted through the following steps: 1) 5 μL of working solutions were added to 95 μL of blank human plasma (dilution 1:20) and vortexed for 10 s; 2) a 10 μL-aliquot of this mix was added with 80 μL of cold IS working solution (see “Standard solutions preparation” section), vortexed and then centrifuged for 15 min at 16200 g and 4°C; 3) 70 μL of the supernatant were transferred to a polypropylene tube for the following analysis. […] The preparation of patients’ samples was conducted as following: patient plasma was thawed at room temperature, vortexed for 10 s and centrifuged, for 10 min, at 3000 g and 4°C; 10 μL of plasma was then treated according to steps 2) and 3).
The HPLC system was a SIL-20AC XR auto-sampler and LC-20AD UFLC XR pumps (Shimadzu, Tokyo, Japan). The mobile phases (MP) consisted of ultrapure water with 0.1% HCOOH (phase A) and methanol/isopropanol (9:1, v/v) with 0.1% HCOOH (phase B). The chromatographic separation was obtained on the Luna Omega Polar C18 column ([…], 100 Å, 50 x 2.1 mm) coupled with a Security Guard Cartridge (Polar, C18, 4 x 2.0 mm), both provided by Phenomenex (Castel Maggiore (BO), Italy). The mass spectrometry system used for the detection was an API 4000 triple quadrupole (AB SCIEX, Massachusetts, USA) with a TurboIonSpray source operating in positive ion mode. To optimize source and compound dependent parameters, solutions of each analyte at the concentration of 100 ng/mL were used with a flow rate of 20 μL/min. Data were processed with Analyst 1.6.3 and the quantification of the peaks was done with MultiQuant 2.1 (software package AB SCIEX).
The exclusion criteria were to be non-collaborative and/or unreliable patients and refusal of informed consent. Patients were asked to periodically (every two months) collect plasma samples for the estimation of PALBO or RIBO and/or LETRO Cmin during their therapy treatment.
Plasma was obtained immediately by centrifugation of the blood samples at 3000 g for 10 min at 4°C. Then the obtained plasma was split into two independent aliquots and stored at -80°C in two different freezers.
At present, each of the 10 patients’ samples collected were quantified in 2 separate runs during 2 different working days, to further assess the reproducibility of the proposed method. In fact, as recently introduced in the last version of the FDA guideline, incurred samples re-analysis (ISR) is necessary to show the reliability of the reported analyte concentrations obtained with a bioanalytical method. ISR is conducted by repeating the analysis of a subset of patients’ samples in separate runs. The two analyses can be considered equivalent if the percentage difference [expressed as: (repeat-original)*100/mean] between the first and the second concentration measured is within ±20% for at least 67% of the samples [23, 24].

[2] = Stability of deproteinized QCs in autosampler at 4 °C; format: physicochemical; details: for Acc. %, T = 72 h in autosampler (4°C): % of nominal
Protocol: (§1) Stability tests were conducted using QCs prepared in triplicate at each concentration (L, M, H): bench-top stability was investigated after 4 h at room temperature; stability of the deproteinized QCs was evaluated in autosampler set at 4 °C re-analysing the samples 24, 48, and 72 h after the first injection; freeze/thaw stability was assessed by analysing three freshly prepared aliquots of each QCs concentration, and then again after one and two freeze/thaw cycles.

[3] = Long term stability of working solutions in methanol at -20°C; format: physicochemical; details: for Acc. %, stored at -20ºC over 2 months (methanol): % of nominal
[4] = Bench-top stability in human plasma, 4 h at room temperature; format: in vitro ADME
Protocol: as §1

[5] = Long term stability in human plasma at -80°C; format: in vitro ADME; details: for Acc. %, stored at -80ºC over 2 months (plasma): % of nominal
[6] = patients, cited from earlier work
[7] = reanalysis in second run, read-out: II quantif. plasma concentration (Cmin)
[8] = deproteinized QC high: nominal 200.00 PALBO / 8000.00 RIBO / 400.00 LETRO ng/mL
[9] = deproteinized QC low: nominal 0.50 PALBO / 20.00 RIBO / 1.00 LETRO ng/mL
[10] = deproteinized QC medium: nominal 20.00 PALBO / 800.00 RIBO / 40.00 LETRO ng/mL
[11] = QC high: nominal 200.00 PALBO / 8000.00 RIBO / 400.00 LETRO ng/mL
[12] = QC low: nominal 0.50 PALBO / 20.00 RIBO / 1.00 LETRO ng/mL
[13] = QC medium: nominal 20.00 PALBO / 800.00 RIBO / 40.00 LETRO ng/mL

concentration at 25 h ([1]; 25 h from last capsule intake, read-out: I quantif. plasma concentration (Cmin)): 0.0775 µg/mL
concentration at 25 h [1, 7]: 0.0824 µg/mL
concentration at 1 week ([1]; last PALBO intake 1 week before sampling, read-out: I quantif. plasma concentration (residual)): 0.0016 µg/mL
concentration at 1 week ([1]; last intake 1 week before sampling, reanalysis in second run, read-out: II quantif. plasma concentration (residual)): 0.0015 µg/mL
concentration at 15 h ([1]; LETRO 2.5 mg/day, last pill intake 15 h before sampling, read-out: I quantif. plasma concentration (Cmin)): 0.0979 µg/mL
concentration at 15 h ([1]; LETRO 2.5 mg/day, reanalysis in second run, read-out: II quantif. plasma concentration (Cmin)): 0.0962 µg/mL
I quantif. plasma concentration (Cmin) ([1]; patient 1, sample 1, PALBO 125 mg/day): 0.053 µg/mL
II quantif. plasma concentration (Cmin) ([1]; patient 1, sample 1, PALBO 125 mg/day, reanalysis in second run): 0.0559 µg/mL
I quantif. plasma concentration (Cmin) ([1]; patient 2, sample 2, PALBO 125 mg/day): 0.0769 µg/mL
II quantif. plasma concentration (Cmin) ([1]; patient 2, sample 2, PALBO 125 mg/day, reanalysis in second run): 0.0842 µg/mL
I quantif. plasma concentration (Cmin) ([1]; patient 4, sample 5, PALBO 100 mg/day): 0.0707 µg/mL
II quantif. plasma concentration (Cmin) ([1]; patient 4, sample 5, PALBO 100 mg/day, reanalysis in second run): 0.0743 µg/mL
I quantif. plasma concentration (Cmin) ([1]; patient 5, sample 6, PALBO 125 mg/day): 0.0395 µg/mL
II quantif. plasma concentration (Cmin) ([1]; patient 5, sample 6, PALBO 125 mg/day, reanalysis in second run): 0.043 µg/mL
I quantif. plasma concentration (Cmin) ([1]; patient 5, sample 7, PALBO 125 mg/day): 0.0415 µg/mL
II quantif. plasma concentration (Cmin) ([1]; patient 5, sample 7, PALBO 125 mg/day, reanalysis in second run): 0.0461 µg/mL
I quantif. plasma concentration (Cmin) ([1]; patient 6, sample 8, PALBO 125 mg/day, LETRO 2.5 mg/day): 0.0697 µg/mL
II quantif. plasma concentration (Cmin) ([1]; patient 6, sample 8, PALBO 125 mg/day, LETRO 2.5 mg/day, reanalysis in second run): 0.074 µg/mL
Mean ± SD measured concentration, T = 72 h in autosampler (4°C) [2, 8]: 215.60 ± 8.28 ng/mL
Acc. %, T = 72 h in autosampler (4°C) [2, 8]: 107.8%
Mean ± SD measured concentration, T = 72 h in autosampler (4°C) [2, 9]: 0.54 ± 0.02 ng/mL
Acc. %, T = 72 h in autosampler (4°C) [2, 9]: 108.2%
Mean ± SD measured concentration, T = 72 h in autosampler (4°C) [2, 10]: 21.10 ± 1.23 ng/mL
Acc. %, T = 72 h in autosampler (4°C) [2, 10]: 105.5%
Mean ± SD measured concentration, stored at -20ºC over 2 months (methanol) [3, 11]: 219.18 ± 9.46 ng/mL
Acc. %, stored at -20ºC over 2 months (methanol) [3, 11]: 109.6%
Mean ± SD measured concentration, stored at -20ºC over 2 months (methanol) [3, 12]: 0.52 ± 0.02 ng/mL
Mean ± SD measured concentration, stored at -20ºC over 2 months (methanol) [3, 13]: 22.43 ± 0.63 ng/mL
Compound: CC(=O)c1c(C)c2cnc(Nc3ccc(N4CCNCC4)cn3)nc2n(C2CCCC2)c1=O [PALBO, Palbociclib]

concentration at 30 h ([1]; 30 h from last pills intake, read-out: I quantif. plasma concentration (Cmin)): 0.396 µg/mL
concentration at 30 h [1, 7]: 0.419 µg/mL
Mean ± SD measured concentration, T = 4h (RT) ([4]; plasma QC high: nominal 200.00 PALBO / 8000.00 RIBO / 400.00 LETRO ng/mL): 7218.92 ± 402.94 ng/mL
Mean ± SD measured concentration, T = 4h (RT) ([4]; plasma QC low: nominal 0.50 PALBO / 20.00 RIBO / 1.00 LETRO ng/mL): 18.86 ± 0.74 ng/mL
Mean ± SD measured concentration, T = 4h (RT) ([4]; plasma QC medium: nominal 20.00 PALBO / 800.00 RIBO / 40.00 LETRO ng/mL): 751.88 ± 27.56 ng/mL
Mean ± SD measured concentration, T = 72 h in autosampler (4°C) [2, 8]: 8274.93 ± 207.29 ng/mL
Acc. %, T = 72 h in autosampler (4°C) [2, 8]: 103.4%
Mean ± SD measured concentration, T = 72 h in autosampler (4°C) [2, 9]: 21.24 ± 1.45 ng/mL
Acc. %, T = 72 h in autosampler (4°C) [2, 9]: 106.2%
Mean ± SD measured concentration, T = 72 h in autosampler (4°C) [2, 10]: 815.31 ± 36.72 ng/mL
Acc. %, T = 72 h in autosampler (4°C) [2, 10]: 101.9%
Mean ± SD measured concentration, stored at -80ºC over 2 months (plasma) [5, 11]: 7699.21 ± 117.73 ng/mL
Acc. %, stored at -80ºC over 2 months (plasma) [5, 11]: 96.2%
Mean ± SD measured concentration, stored at -80ºC over 2 months (plasma) [5, 12]: 21.10 ± 1.05 ng/mL
Acc. %, stored at -80ºC over 2 months (plasma) [5, 12]: 105.5%
Mean ± SD measured concentration, stored at -80ºC over 2 months (plasma) [5, 13]: 789.37 ± 28.89 ng/mL
Acc. %, stored at -80ºC over 2 months (plasma) [5, 13]: 98.7%
Mean ± SD measured concentration, stored at -20ºC over 2 months (methanol) [3, 11]: 8522.63 ± 68.65 ng/mL
Acc. %, stored at -20ºC over 2 months (methanol) [3, 11]: 106.5%
Mean ± SD measured concentration, stored at -20ºC over 2 months (methanol) [3, 12]: 19.52 ± 0.30 ng/mL
Acc. %, stored at -20ºC over 2 months (methanol) [3, 12]: 97.6%
Mean ± SD measured concentration, stored at -20ºC over 2 months (methanol) [3, 13]: 885.44 ± 35.25 ng/mL
Acc. %, stored at -20ºC over 2 months (methanol) [3, 13]: 110.7%
Compound: CN(C)C(=O)c1cc2cnc(Nc3ccc(N4CCNCC4)cn3)nc2n1C1CCCC1 [RIBO, ribociclib]
in vivo RIBO plasma concentration (CV), Cmin, population mean ([6]; 20 (ref 19)): 711 ng/mL and 711 (72.9) ng/mL
in vivo RIBO plasma concentration (CV), upper end of range [6]: 3500 (65.8) ng/mL
